Measurements published in patent US20260191853A1, “METHOD OF TREATING DRUG-INDUCED BRADYARRHYTHMIA” (OSAKA UNIVERSITY, priority 2022, published 2026).
Entries after “also recorded” stand apart in the source; their conditions may differ.

Key:
[1] = tested on: Hartley guinea pigs; assay: Preventive effect on fingolimod-induced bradyarrhythmia in isoflurane-anesthetized guinea pig model; type: in vivo
Description: A solvent or compound (I) (free form) was administered by oral gavage at a dose of 1, 3, or 10 mg/kg (volume: 5 mL/kg) to Hartley guinea pigs (7 to 10 weeks old, male, available from Japan SLC, Inc.). After completion of the administration, each animal was subjected to anesthetic induction by inhalation of isoflurane (available from Pfizer Japan Inc.), and the animal was held on an operating table having a heater function. The trachea was incised, and a tracheal cannula (KN-375, available from Natsume Seisakusho Co., Ltd.) was inserted. The tracheal cannula was connected to a ventilator (SN-480-7, available from Shinano Seisakusho Co., Ltd.), and artificial respiration was controlled by supplying 100% oxygen at a volume of 10 mL and a ventilation rate of 60 times/minute. The solvent used was 0.5 w/v % methyl cellulose 400 solution (available from FUJIFILM Wako Pure Chemical Corporation). Isoflurane (available from Pfizer Japan Inc.) anesthesia (about 1 to 4%, carrier gas: 100% oxygen) was used for maintenance of anesthesia. A catheter (BD intramedic polyethylene tubing PE50, available from Becton, Dickinson and Company) charged with 50 units/mL heparin (available from AY PHARMACEUTICALS CO., LTD.) was inserted into each of the carotid artery and the jugular vein and placed in the blood vessel. Systemic blood pressure was measured with a high-sensitivity DC amplifier (AD-611J, available from NIHON KOHDEN CORPORATION) via the catheter placed in the carotid artery. Electrodes were attached to the body surface, and a body surface electrocardiogram was measured with a high-sensitivity amplifier (AB-611J, available from NIHON KOHDEN CORPORATION). Blood pressure and electrocardiogram data were acquired and analyzed with PowerLab/Labchart system (available from ADInstruments). Analysis items are systolic blood pressure, diastolic blood pressure, average blood pressure, heart rate, P-wave width, PR interval, QRS width, QT interval, and corrected QT interval. Corrected QT interval was calculated using the fridericia formula (QTc=QT interval/RR interval^1/3). After stabilization of each parameter, fingolimod hydrochloride (synthesized with reference to WO 2000/027798) was continuously administered intravenously at 0.1 mg/kg for 10 minutes via the catheter placed in the jugular vein, followed by observation of the presence or absence of the onset of bradyarrhythmia for 60 minutes. The solvent used was saline (available from Otsuka Pharmaceutical Factory, Inc.). Data were recorded and blood was collected 5, 10, 15, 20, 30, and 60 minutes after initiation of administration of fingolimod hydrochloride. The observation was terminated 60 minutes after initiation of the administration, and the animal was euthanized by exsanguination or intravenous administration of a large amount of pentobarbital or saturated potassium chloride solution under isoflurane anesthesia. Data were analyzed for atrial beating rate over time, ventricular beating rate over time, electrocardiographic parameters, the presence or absence of the onset of atrioventricular block, and plasma concentrations of compound (I), fingolimod, and fingolimod phosphorylated form. The plasma was collected by centrifuging the blood and cryopreserved at about −20° C. After thawing of the plasma, plasma drug concentrations were measured using LC/MS/MS after deproteinization with acetonitrile.
Atrioventricular block was defined as follows.
Second-degree atrioventricular block: atrial activation wave (P wave) is normal, which is followed by or not followed by ventricular activation wave (QRS wave).
Third-degree atrioventricular block: there is no electrical conduction between the atrium and the ventricle, and atrial and ventricular activation waves are generated independently, resulting in atrioventricular dissociation.
In FIG. 1, the measurements are shown as mean±standard error. […]

[2] = tested on: Hartley guinea pigs; assay: Termination effect on siponimod-induced bradyarrhythmia in isoflurane-anesthetized guinea pig model; type: in vivo
Source text: Hartley guinea pigs (7 to 10 weeks old, male, available from Japan SLC, Inc.) were subjected to anesthetic induction by inhalation of isoflurane (available from Pfizer Japan Inc.), and each animal was held on an operating table having a heater function. The trachea was incised, and a tracheal cannula (KN-375, available from Natsume Seisakusho Co., Ltd.) was inserted. The tracheal cannula was connected to a ventilator (SN-480-7, available from Shinano Seisakusho Co., Ltd.), and artificial respiration was controlled by supplying 100% oxygen at a volume of 10 mL and a ventilation rate of 60 times/minute. Isoflurane (available from Pfizer Japan Inc.) anesthesia (about 1 to 4%, carrier gas: 100% oxygen) was used for maintenance of anesthesia. A catheter (BD intramedic polyethylene tubing PE50, available from Becton, Dickinson and Company) charged with 50 units/mL heparin (available from AY PHARMACEUTICALS CO., LTD.) was inserted into each of the carotid artery and the jugular vein and placed in the blood vessel. Systemic blood pressure was measured with a high-sensitivity DC amplifier (AD-611J, available from NIHON KOHDEN CORPORATION) via the catheter placed in the carotid artery. Electrodes were attached to the body surface, and a body surface electrocardiogram was measured with a high-sensitivity amplifier (AB-611J, available from NIHON KOHDEN CORPORATION). Blood pressure and electrocardiogram data were acquired and analyzed with PowerLab/Labchart system (available from ADInstruments). After stabilization of each parameter, siponimod (available from Nissan Chemical Corporation) was continuously administered intravenously at 0.01 mg/kg for 10 minutes via the catheter placed in the jugular vein, followed by observation of the presence or absence of atrioventricular block. The solvent used was a solution prepared by mixing of Polyethylene Glycol 400 (available from KANTO CHEMICAL CO., INC.) and dimethyl sulfoxide (available from FUJIFILM Wako Pure Chemical Corporation) at 9: 1 (volume ratio). […] Data were recorded and blood was collected 10, 20, and 30 minutes after initiation of administration of compound (I) dihydrochloride and at the time of termination of atrioventricular block. […] Data were analyzed for the presence or absence of the termination, the time required for the termination, and the plasma concentration of compound (I) at the time of termination. […] After thawing of the plasma, plasma drug concentrations were measured using LC/MS/MS after deproteinization with acetonitrile. […]

Cc1cc(CO)nc2cc3c(cc12)OC(C)(C)[C@H](O)[C@H]3NCCc1ccccc1 [Compound (I), (3R,4S)-7-Hydroxymethyl-2,2,9-trimethyl-4-(phenethylamino)-3,4-dihydro-2H-pyrano[2,3-g]quinoline-3-ol]
cases in which fingolimod-induced atrioventricular block was not observed ([1]; 1 mg/kg oral gavage, four cases per group): 75% | fingolimod-induced bradycardia (ventricular beating rate) ([1]; 3 mg/kg oral gavage, fingolimod hydrochloride 0.1 mg/kg i.v.): almost restored | cases in which fingolimod-induced atrioventricular block was not observed ([1]; 3 mg/kg oral gavage, four cases per group): 75% | fingolimod-induced bradycardia (ventricular beating rate / heart rate) ([1]; 10 mg/kg oral gavage, fingolimod hydrochloride 0.1 mg/kg i.v.): completely restored; also recorded: completely resolved | cases in which fingolimod-induced atrioventricular block was suppressed ([1]; 10 mg/kg oral gavage, four cases per group): 100% | onset of fingolimod-induced bradyarrhythmia (atrioventricular block) ([1]; 1, 3, 10 mg/kg oral gavage, FIG. 1 and FIG. 2): prevented the onset of fingolimod-induced bradyarrhythmia (atrioventricular block) in a dose-dependent manner | fingolimod-induced bradycardia (ventricular beating rate / heart rate) ([1]; compound (I) 1, 3, 10 mg/kg oral gavage before fingolimod hydrochloride 0.1 mg/kg i.v. over 10 min, FIG. 1): improved in a dose-dependent manner; also recorded: prevented a reduction in heart rate | fingolimod-induced prolongation of QT time ([1]; compound (I) oral gavage 1-10 mg/kg): almost completely suppressed | siponimod-induced bradyarrhythmia (atrioventricular block) termination ([2]; compound (I) dihydrochloride 0.1 mg/kg continuous i.v.): completely terminated | Compound (I) concentration at the time of termination ([2]; plasma, siponimod-induced block, 0.1 mg/kg continuous i.v. for 30 minutes, mean±standard error): 22.7 ± 3.1 ng/mL | Number of cases where atrioventricular block was terminated ([2]; siponimod-induced block, compound (I) dihydrochloride 0.1 mg/kg continuous i.v. for 30 minutes): 5/5 | Time required for the termination of atrioventricular block ([2]; siponimod-induced block, compound (I) dihydrochloride 0.1 mg/kg continuous i.v. for 30 minutes, mean±standard error): 638 ± 75 s
